Test results taken from US20150126464A1, “THERAPEUTIC DRUG AND THERAPEUTIC METHOD FOR NEUROLOGICAL DISEASES INCLUDING ALZHEIMER'S DISEASE ASSOCIATED WITH 1,25D3-MARRS” (priority 2013, published 2015).

What was measured:
[1] = system: rat cortical neurons (SD E18); assay: Measurement of axon density in cortical neurons with or without 1,25D3-MARRS knockdown; details: 1 μM, 4 days, vs vehicle
Text: siRNAs were transfected into rat cortical neurons (SD E18) according to the manufacturer's protocol for nucleofection (Lonza, Bazel, Switzerland). […] Two days after the transfection, the cells were fixed and double-immunostained with a monoclonal antibody against a neuron marker MAP2a/2b (1:500, NeoMarker, Fremont, Calif., USA) and Ab099 clone, a specific antibody for 1,25D3-MARRS (1:500, provided by Dr. Nemere).
Twelve to fourteen images were captured. The lengths of the pNF-H-positive axons were measured using an image analyzer Neurocyte (Kurabo), which automatically traces and measures neurite length without measuring the cell bodies. The sum of the axon lengths was divided by the number of MAP2-positive neurons.
1,25D3-MARRS was knocked down using siRNA transfection. […] Two days after the siRNA transfection, denosomin (1 μM) or a vehicle solution was applied to the cells. Further, after 4-day incubation, the cells were double-immunostained for pNF-H and MAP2 to measure the axonal length per neuron.

5XFAD mice [2] = assay: Immunohistochemistry of brain slices of 5XFAD mice (amyloid plaques, PHF-tau, abnormal axons, presynapses); assay type: in vivo, mouse; details: vs vehicle-treated 5XFAD
Method: One day after the novel object recognition test, the mice were anesthetized and transcardially perfused with cold physiological saline. The brains were carefully removed from the skull, immediately immersed in 10 to 30% sucrose-PBS and stored at -80° C. The brains were cut in 20-μm successive coronal slices every 100 μm in the parietal area (bregma 1.4-2 mm) sections using a cryostat (C[…], Leica, Heidelberg, Germany). The slices were fixed with 4% paraformaldehyde and stained with a polyclonal antibody against Aβ (1-40/42) (1:300) (Chemicon, Temecula, Calif., USA), a monoclonal antibody against pNF-H (1:500) (Covance, Emeryville, Calif., USA), a monoclonal antibody against synaptophysin (1:500) (Sigma-Aldrich), and a monoclonal antibody against PHF-tau (Thermo Scientific, Rockford, Ill., USA) at 4° C. for 20 hours. […] Three successive brain slices of the frontal cortex and five successive slices of the hippocampus were captured from a mouse for quantification. Extracellular amyloid plaques were determined by the size (greater than 50 μm in width), and the area of amyloid plaques was measured using the image analyzing software ImageJ. The area of the pNF-H-positive abnormal bulb-like axons was measured using ImageJ for every amyloid plaque in the fluorescent images (324 μm×430 μm). The areas of the synaptophysin-positive presynaptic boutons in every amyloid plaque were measured in fluorescent images (324 μm×430 μm) using Image J. The areas of PHF-tau in every amyloid plaque and outer amyloid plaques were measured in fluorescent images (324 μm×430 μm) using ImageJ.

[3] = system: spinal cord injury (SCI) mice; assay: Hindlimb motor function of spinal cord injury (SCI) mice (BMS, TMS); assay type: in vivo, mouse; details: diosgenin 10 μmol/kg i.p. once a day for 7 days, vs vehicle
Method: In the spinal cord injury model test, 7-week-old female ddY mice (SLC) were used. The mice were maintained with free access to food and water in a controlled environment (22±2° C., 50±5% humidity, 12-h light/dark cycle starting at 7:00 am). A contusion was created by dropping a 3.0 g weight once onto an exposed first lumbar vertebrae (L1) of each mouse from a height of 3 cm using stereotaxic apparatus (made by Narishige). One hour after surgery, the mice were randomly divided into a vehicle solution-treated group and a diosgenin-treated group, and then drug administration was initiated.
Diosgenin (10 μmol/kg) was intraperitoneally administered to SCI mice once a day for 7 days.
One hour after the last administration in Example 13 and Comparative Example 17, each mouse was moved to an open field (23.5 cm×16.5 cm×12.5 cm) and observed for behavior evaluation for 5 minutes. The locomotion behavior in the open field was evaluated using the Basso Mouse Scale (BMS), which is a general standard for evaluation of the hindlimb function of SCI model mice (FIG. 14A), and a 0-18-point Toyama Mouse Scale (TMS), which is a modified BMS devised by the inventors for better test accuracy, (FIG. 14B).
The new Toyama Mouse Scale (TMS), which is a modified BMS devised by the inventors for better test accuracy, was used in the hindlimb function of SCI mice.

5XFAD mice [4] = assay: Open field locomotion test in 5XFAD mice; assay type: in vivo, mouse; details: i.p. 20 days, diosgenin 10 μmol/kg, memantine hydrochloride 200 μmol/kg/day, among the four groups
Method: Diosgenin was dissolved in dimethyl sulfoxide (DMSO) at 10 times the final concentration to give a stock solution. The stock solution was diluted in physiological saline to the final concentration immediately before treatment. The diosgenin solution was intraperitoneally administered to 5XFAD mice once a day (10 μmol/kg=4.14 mg/kg) for 20 days. On the last day of administration (Day 20), each mouse was housed in a separate open-field box made of polyvinyl chloride (33 cm×[…]; height: 26.5 cm) and habituated to the environment for 10 min.
For each mouse of Example 1, Comparative Examples 1 and 2, and Reference Example 1, the path during the 10-minute habituation was tracked using a digital camera system. The distance each mouse traveled during the 10 minutes was analyzed as locomotion activity with EthoVision 3.0 (Noldus, Wageningen, The Netherlands). The next day, a novel object recognition test was performed as described in Joyashiki, E. et al., Int J Neurosci, 121, 181-190, 2011 and Tohda, C. et al., Int J Neurosci, 121, 641-648, 2011, written by the inventors and others. Testing was carried out in a dimly illuminated room. […] In the present invention, the ratio (%) of the exploration time for the novel object to the total exploration time was calculated as an exploration preferential index. […]

[5] = diosgenin 10 μmol/kg, memantine hydrochloride 200 μmol/kg/day i.p. 20 days

For `C[C@@H]1CC[C@@]2(OC1)O[C@H]1C[C@H]3[C@@H]4CC=C5C[C@@H](O)CC[C@]5(C)[C@H]4CC[C@]3(C)[C@H]1[C@@H]2C` [diosgenin], the “density of pNF-H-positive axons per MAP2-positive neuron, control groups” value ([1]; control (no 1,25D3-MARRS knockdown) cortical neurons) was “significantly increased”, the “density of pNF-H-positive axons per MAP2-positive neuron, 1,25D3-MARRS knockdown groups” value ([1]; neurons transfected with siRNA for 1,25D3-MARRS (400 nM)) was “did not show any difference” and the “area of abnormal presynapses (swollen presynapse area) per amyloid plaque in the cerebral cortex” value (5XFAD mice [2]; diosgenin 10 μmol/kg i.p. 20 days) was “significantly reduced”. The “area of abnormal axons (swollen axon area) per amyloid plaque in the cerebral cortex” value (5XFAD mice [2]; [5]) was “significantly reduced”, the “area of abnormal axons (swollen axon area) per amyloid plaque in the hippocampus” value (5XFAD mice [2]; [5]) was “significantly reduced” and the “total area of PHF-tau in the cerebral cortex” value (5XFAD mice [2]; [5]) was “significantly reduced”. For the same molecule, the “total area of PHF-tau in the hippocampus” value (5XFAD mice [2]; [5]) was “significantly reduced”, the “total area of amyloid plaques in the cerebral cortex” value (5XFAD mice [2]; [5]) was “significantly reduced” and the “total area of amyloid plaques in the hippocampus” value (5XFAD mice [2]; [5]) was “significantly reduced”. The “hindlimb motor function (BMS and TMS)” value [3] was “improved hindlimb motor function” and the “traveling speed and distance in open field locomotion test” value (5XFAD mice [4]) was “no significant differences”.
